Data on 17 compounds can be found in ChEMBL document CHEMBL3046172, “Synthesis and Insecticidal Activity of New 2- and 6-Substituted 4-Acetoxyquinolines” (1997).

Assay type in all cases: functional
Assay [1] has as its system Bombyx mori. In words: Insecticidal activity against Bombyx mori Syogetsu x Syunrei third-instar larvae assessed as insect mortality upon topical application at 1 ug measured 48 hr post compound treatment.
In assay [2] the test system is Bombyx mori. Nature of the assay: Insecticidal activity against Bombyx mori Syogetsu x Syunrei third-instar larvae assessed as insect mortality upon topical application at 3 ug measured 48 hr post compound treatment.
Assay [3] concerns Bombyx mori. Nature of the assay: Insecticidal activity against Bombyx mori Syogetsu x Syunrei third-instar larvae assessed as insect mortality upon topical application at 0.3 ug measured 48 hr post compound treatment.
Assay [4] relates to Bombyx mori. In words: Insecticidal activity against Bombyx mori Syogetsu x Syunrei third-instar larvae assessed as insect mortality upon topical application at 10 ug measured 48 hr post compound treatment.
The test system of assay [5] is Spodoptera litura. In words: Insecticidal activity against Spodoptera litura third-instar larvae reared on artificial diets of Insecta LF assessed as insect mortality at 125 ppm measured 2 days post compound treatment. The following applies: 48 h.
Assay [6] has as its system Spodoptera litura. In words: Insecticidal activity against Spodoptera litura third-instar larvae reared on artificial diets of Insecta LF assessed as insect mortality at 500 ppm measured 2 days post compound treatment. The following applies: 48 h.
The subject of assay [7] is Plutella xylostella. Nature of the assay: Insecticidal activity against Plutella xylostella (diamondback moth) third-instar larvae reared on cabbage plants leaves pre-treated with 1000 ppm compound assessed as insect mortality measured 2 days post compound treatment.
In assay [8] the test system is Plutella xylostella. In words: Insecticidal activity against Plutella xylostella (diamondback moth) third-instar larvae reared on cabbage plants leaves pre-treated with 250 ppm compound assessed as insect mortality measured 2 days post compound treatment.
Assay [9] concerns Spodoptera litura. Nature of the assay: Insecticidal activity against Spodoptera litura third-instar larvae reared on artificial diets of Insecta LF assessed as insect mortality at 250 ppm measured 2 days post compound treatment. The following applies: 48 h.
The subject of assay [10] is Plutella xylostella. Nature of the assay: Insecticidal activity against Plutella xylostella (diamondback moth) third-instar larvae reared on cabbage plants leaves pre-treated with 500 ppm compound assessed as insect mortality measured 2 days post compound treatment.
Assay [11] deals with Bombyx mori. Nature of the assay: Insecticidal activity against Bombyx mori Gunpo x Shugyoku third-instar larvae assessed as insect mortality upon topical application at 10 ug measured 48 hr post compound treatment.

`CCCCCCC/C=C/c1nc2ccccc2c(OC(C)=O)c1C`: the mortality in the assay on Bombyx mori [1] was found to be 76%; in the assay with Bombyx mori [2] it was 100%; with Bombyx mori [3] it was 70%.

For the compound `CCCCCCCCCc1nc2ccccc2c(OC(C)=O)c1C`, the mortality in the assay on Bombyx mori [1] is recorded as 15%; in the assay with Bombyx mori [2], 100%; with Bombyx mori [4], 100%.

Consider `CCCCCCCc1nc2ccccc2c(OC(C)=O)c1C`, for which the mortality came out at 10% in the assay on Bombyx mori [1], 100% in the assay with Bombyx mori [2], 100% with Bombyx mori [4] and 0% in the assay on Bombyx mori [3].

With `CCCCCCc1nc2ccccc2c(OC(C)=O)c1C`, the mortality in the assay on Bombyx mori [1] was determined as 10%; with Bombyx mori [2], 100%; in the assay with Bombyx mori [4] it was 100%.

As for `CCCCCc1nc2ccccc2c(OC(C)=O)c1C`, the mortality turned out to be 0% in the assay on Bombyx mori [1], 40% in the assay on Bombyx mori [2] and 100% with Bombyx mori [4].

Regarding `CCCCc1nc2ccccc2c(OC(C)=O)c1C`, the figures for the mortality with Bombyx mori [2] and with Bombyx mori [4] were 35% and 95%, respectively.

Regarding `CCCc1nc2ccccc2c(OC(C)=O)c1C`, the mortality in the assay with Bombyx mori [2] and with Bombyx mori [4] was 0% in each case.

As to `CCc1nc2ccccc2c(OC(C)=O)c1C`, the mortality in the assay on Bombyx mori [1] came to 95%; in the assay with Bombyx mori [2], 100%; in the assay on Bombyx mori [3], 0%.

For the compound `CC(=O)Oc1c(C)c(C)nc2ccccc12`, the results for the mortality in the assay with Bombyx mori [1], in the assay on Bombyx mori [2] and in the assay with Bombyx mori [4] were 0%, 71% and 100%, respectively.

With `CCCCCCCCCc1nc2ccc(F)cc2c(OC(C)=O)c1C`, the mortality with Bombyx mori [4] was 10%.

For the compound `CCCCCCc1nc2ccc(F)cc2c(OC(C)=O)c1C`, the results for the mortality in the assay on Bombyx mori [1], in the assay with Bombyx mori [2] and with Bombyx mori [4] were 0%, 60% and 75%, respectively.

Take `CCc1nc2ccc(F)cc2c(OC(C)=O)c1C`: the mortality at 125 ppm in the assay with Spodoptera litura [5] is 55%. For the same compound, the mortality in the assay on Bombyx mori [1] amounted to 100%; in the assay with Bombyx mori [3], 70%. In addition, the mortality at 500 ppm in the assay with Spodoptera litura [6] was determined as 100%; in the assay with Plutella xylostella [10] it was 70%. Further, the mortality at 1000 ppm in the assay on Plutella xylostella [7] came to 97.5%. The mortality at 250 ppm amounted to 42.5% in the assay on Plutella xylostella [8] and 90% with Spodoptera litura [9].

For `CC(=O)Oc1c(C)c(C)nc2ccc(F)cc12`, the values for the mortality with Bombyx mori [1], in the assay with Bombyx mori [2] and with Bombyx mori [3] were 95%, 100% and 0%, respectively.

Turning to `C=Cc1nc2ccccc2c(OC(C)=O)c1C`, the mortality in the assay with Bombyx mori [11] was 0%.

Turning to `C/C=C/c1nc2ccccc2c(OC(C)=O)c1C`, in the assay with Bombyx mori [4], the mortality is given as 0%.

As for `CCCCCCC/C=C/c1nc2ccc(F)cc2c(OC(C)=O)c1C`, in the assay on Bombyx mori [4], the mortality was determined as 0%.

Take `CCCCCCC/C=C\c1nc2ccc(F)cc2c(OC(C)=O)c1C`: the mortality in the assay with Bombyx mori [1] was 10%; with Bombyx mori [2], 100%; with Bombyx mori [4], 100%; in the assay with Bombyx mori [3], 0%.
